Data: patent US20030027799A1, “Methods of treating cancer using a combination of drugs” (priority 2001, published 2003)

Legend:
[1] = Dose escalation study of β-L-OddC and cisplatin in cancer patients: dose limiting toxicity, maximum tolerated dose; format: in vivo; settings: β-L-OddC in combination with cisplatin 50 mg/m^2, administered every four weeks
Text: The patients selected were adult patients with solid tumours that were refractory to standard therapies. […] They had adequate bone marrow, renal and hepatic function. There were 33 patients treated. Sixteen were male patients and seventeen were female. Twenty patients had colorectal cancer. Two patients had melanoma. One patient each had gastric cancer, islet cell cancer of the pancreas, non-small lung cancer (NSCLC), renal cancer, cervical cancer, breast cancer, ovarian cancer, squamous cell cancer of the pelvis, liver cancer, abdominal cancer and penile cancer. […] The terms LP and HP refer to lightly pre-treated and heavily pre-treated patient status. The term DLT refers to Dose limiting Toxicity.

[2] = test system: various forms of cancers (e.g. solid tumours, adult leukemia and lymphomas); settings: Weitman 2000, Giles 2001, Gourdeau 2001; cited from earlier work

Nc1ccn([C@@H]2CO[C@H](CO)O2)c(=O)n1 [β-L-OddC, (−)-β-L-Dioxolane-Cytidine]
recommended dose for heavily pre-treated patients [1]: 4.8 mg/m^2
activity in the treatment of various forms of cancers [2]: potent activity
